Test results published in patent US20260285855A1, “HETEROARYL DERIVATIVES AS DDRS INHIBITORS” (CHIESI FARMACEUTICI S.P.A., priority 2023, published 2026).

Tests used:
[1] = target: T1, DDR1 (Homo sapiens, UniProt Q08345); test: LanthaScreen Europium Kinase Binding assay, DDR1; conditions: 5 nM DDR1, 20 nM Kinase Tracer 178, 1 h at rt; Ki from IC50 by Cheng-Prusoff; read-out: Ki DDR1
T1 construct: purchased Carna Biosciences
Procedure: (§1) DDR1 and DDR2 binding assays were performed using Life Technologies LanthaScreen™ Europium Kinase Binding assay. […] IC50 values were determined in GraphPad Prism 7.0 software, using 4 parameter model: log (inhibitor) vs. response. IC50 values were converted in Ki using the Cheng-Prusoff equation (Ki-IC50/(1+ [Tracer]/Kd).

[2] = target: T2, DDR2 (Homo sapiens, UniProt Q16832); test: LanthaScreen Europium Kinase Binding assay, DDR2; conditions: 5 nM DDR2, 10 nM Kinase Tracer 178, 1 h at rt; Ki from IC50 by Cheng-Prusoff; read-out: Ki DDR2
T2 construct: purchased Life Technologies
T2 sequence (Q16832 22-855): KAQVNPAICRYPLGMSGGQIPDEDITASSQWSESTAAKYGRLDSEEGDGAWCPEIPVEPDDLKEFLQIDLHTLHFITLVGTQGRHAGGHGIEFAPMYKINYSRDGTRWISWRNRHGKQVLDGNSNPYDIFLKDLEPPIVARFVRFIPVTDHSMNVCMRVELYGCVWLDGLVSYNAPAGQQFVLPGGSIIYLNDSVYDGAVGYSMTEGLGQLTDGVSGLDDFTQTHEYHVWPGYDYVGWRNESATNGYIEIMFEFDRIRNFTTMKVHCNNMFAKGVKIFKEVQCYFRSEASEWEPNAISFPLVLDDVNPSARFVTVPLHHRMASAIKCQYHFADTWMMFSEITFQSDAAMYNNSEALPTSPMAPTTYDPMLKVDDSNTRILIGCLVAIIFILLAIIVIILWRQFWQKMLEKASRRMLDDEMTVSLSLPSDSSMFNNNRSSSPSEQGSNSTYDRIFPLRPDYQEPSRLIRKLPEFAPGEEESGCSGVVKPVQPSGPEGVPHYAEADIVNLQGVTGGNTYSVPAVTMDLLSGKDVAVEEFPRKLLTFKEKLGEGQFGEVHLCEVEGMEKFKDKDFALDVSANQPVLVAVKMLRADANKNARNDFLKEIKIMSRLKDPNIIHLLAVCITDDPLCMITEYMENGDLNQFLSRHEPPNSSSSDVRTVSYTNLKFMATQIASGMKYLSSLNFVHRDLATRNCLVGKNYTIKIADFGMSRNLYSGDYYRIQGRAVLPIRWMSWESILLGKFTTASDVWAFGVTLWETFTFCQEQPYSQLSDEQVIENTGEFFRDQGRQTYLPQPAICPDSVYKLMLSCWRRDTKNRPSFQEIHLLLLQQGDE
Procedure: as §1

T1 sequence (Q08345 19-913): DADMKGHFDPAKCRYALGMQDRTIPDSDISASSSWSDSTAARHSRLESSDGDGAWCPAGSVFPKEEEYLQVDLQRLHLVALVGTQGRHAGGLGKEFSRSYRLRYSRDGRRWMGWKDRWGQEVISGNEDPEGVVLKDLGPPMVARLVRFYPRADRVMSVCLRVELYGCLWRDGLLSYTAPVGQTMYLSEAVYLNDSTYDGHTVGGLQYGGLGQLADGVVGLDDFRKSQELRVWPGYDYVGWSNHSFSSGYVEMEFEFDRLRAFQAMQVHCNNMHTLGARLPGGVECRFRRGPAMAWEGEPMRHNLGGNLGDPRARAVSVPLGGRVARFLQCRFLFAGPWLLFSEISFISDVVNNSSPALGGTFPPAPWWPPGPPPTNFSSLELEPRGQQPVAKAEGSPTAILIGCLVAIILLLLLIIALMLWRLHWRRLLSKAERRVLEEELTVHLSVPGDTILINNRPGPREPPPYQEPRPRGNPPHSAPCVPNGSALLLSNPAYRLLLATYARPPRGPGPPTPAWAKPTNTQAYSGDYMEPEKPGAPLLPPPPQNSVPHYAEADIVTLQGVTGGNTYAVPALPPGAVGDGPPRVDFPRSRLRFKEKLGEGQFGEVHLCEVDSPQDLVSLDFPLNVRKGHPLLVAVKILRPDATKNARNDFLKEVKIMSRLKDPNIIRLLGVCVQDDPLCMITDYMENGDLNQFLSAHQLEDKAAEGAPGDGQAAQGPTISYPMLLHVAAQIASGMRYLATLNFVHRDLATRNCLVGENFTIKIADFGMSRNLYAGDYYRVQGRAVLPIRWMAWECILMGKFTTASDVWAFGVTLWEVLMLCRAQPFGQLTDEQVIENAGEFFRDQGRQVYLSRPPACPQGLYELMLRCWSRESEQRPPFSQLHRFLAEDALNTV

| SMILES | Ki [1] [nM] | Ki [2] [nM] |
| --- | --- | --- |
| CN(C(=O)Nc1cccc(C(F)(F)F)c1)C1CC2(C1)CN(C(=O)c1cnn3ccn(CCF)c13)C2 [Example 195, 1-(2-(1-(2-fluoroethyl)-1H-imidazo[1,2-b]pyrazole-7-carbonyl)-2-azaspiro[3.3]heptan-6-yl)-1-methyl-3-(3-(trifluoromethyl)phenyl)urea] | < 5 | 5 to 25 |
| O=C(Nc1cccc(C(F)(F)F)c1)NC1CC2(C1)CN(C(=O)c1cnc3ccccn13)C2 [Example 1, 1-(2-(imidazo[1,2-a]pyridine-3-carbonyl)-2-azaspiro[3.3]heptan-6-yl)-3-(3-(trifluoromethyl)phenyl)urea] | < 5 | 5 to 25 |
| CN(C(=O)Nc1cc(CC(F)(F)F)ccn1)C1CC2(C1)CN(C(=O)c1cnn3ccn(C)c13)C2 [Example 150, 1-methyl-1-(2-(1-methyl-1H-imidazo[1,2-b]pyrazole-7-carbonyl)-2-azaspiro[3.3]heptan-6-yl)-3-(4-(2,2,2-trifluoroethyl)pyridin-2-yl)urea] | < 5 | 5 to 25 |
| O=C(Nc1cccc(C(F)(F)F)c1)NC1CC2(C1)CN(C(=O)c1ncnc3[nH]ncc13)C2 [Example 122, 1-(2-(1H-pyrazolo[3,4-d]pyrimidine-4-carbonyl)-2-azaspiro[3.3]heptan-6-yl)-3-(3-(trifluoromethyl)phenyl)urea] | < 5 | < 5 |
| O=C(Nc1cc(C(F)(F)F)ccn1)NC1CC2(C1)CN(C(=O)c1ncnc3ccsc13)C2 [Example 90, 1-(2-(thieno[3,2-d]pyrimidine-4-carbonyl)-2-azaspiro[3.3]heptan-6-yl)-3-(4-(trifluoromethyl)pyridin-2-yl)urea] | < 5 | < 5 |
| COc1c(CO)cc(C(F)(F)F)cc1NC(=O)NC1CC2(C1)CN(c1cnc3[nH]ncc3c1)C2 [Example 312, 1-(2-(1H-pyrazolo[3,4-b]pyridin-5-yl)-2-azaspiro[3.3]heptan-6-yl)-3-(3-(hydroxymethyl)-2-methoxy-5-(trifluoromethyl)phenyl)urea] | < 5 | 5 to 25 |
| CCN(C(=O)Nc1cccc(C(F)(F)F)c1)C1CC2(C1)CN(C(=O)c1cnn3ccn(C)c13)C2 [Example 85, 1-ethyl-1-(2-(1-methyl-1H-imidazo[1,2-b]pyrazole-7-carbonyl)-2-azaspiro[3.3]heptan-6-yl)-3-(3-(trifluoromethyl)phenyl)urea] | < 5 | 5 to 25 |
| CN(C(=O)Nc1cncc(C(F)(F)F)c1)C1CC2(C1)CN(C(=O)c1cnn3ccsc13)C2 [Example 47, 1-methyl-1-(2-(pyrazolo[5,1-b]thiazole-7-carbonyl)-2-azaspiro[3.3]heptan-6-yl)-3-(5-(trifluoromethyl)pyridin-3-yl)urea] | < 5 | 5 to 25 |
| COCCn1cc(-c2ccc3c(C(=O)N4CC5(CC(N(C)C(=O)Nc6cncc(C(F)(F)F)c6)C5)C4)cnn3c2)cn1 [Example 227, 1-(2-(6-(1-(2-methoxyethyl)-1H-pyrazol-4-yl)pyrazolo[1,5-a]pyridine-3-carbonyl)-2-azaspiro[3.3]heptan-6-yl)-1-methyl-3-(5-(trifluoromethyl)pyridin-3-yl)urea] | < 5 | 5 to 25 |
| O=C(Nc1cccc(C(F)(F)F)c1)OC1CC2(C1)CN(C(=O)c1cnn3ccsc13)C2 [Example 147, 2-(pyrazolo[5,1-b]thiazole-7-carbonyl)-2-azaspiro[3.3]heptan-6-yl(3-(trifluoromethyl)phenyl)carbamate] | < 5 | < 5 |
| Cn1ccn2ncc(C(=O)N3CC4(CC(NC(=O)Nc5cc(F)cc(C(F)(F)F)c5)C4)C3)c12 [Example 106, 1-(3-fluoro-5-(trifluoromethyl)phenyl)-3-(2-(1-methyl-1H-imidazo[1,2-b]pyrazole-7-carbonyl)-2-azaspiro[3.3]heptan-6-yl)urea] | < 5 | < 5 |
| O=C(Nc1cccc(C(F)(F)F)c1)NC1CC2(C1)CN(C(=O)c1ccnc3cc[nH]c13)C2 [Example 46, 1-(2-(1H-pyrrolo[3,2-b]pyridine-7-carbonyl)-2-azaspiro[3.3]heptan-6-yl)-3-(3-(trifluoromethyl)phenyl)urea] | < 5 | < 5 |
| CN(C(=O)Nc1cc(C(F)(F)F)cnn1)C1CC2(C1)CN(C(=O)c1cnn3ccccc13)C2 [Example 259, 1-methyl-1-(2-(pyrazolo[1,5-a]pyridine-3-carbonyl)-2-azaspiro[3.3]heptan-6-yl)-3-(5-(trifluoromethyl)pyridazin-3-yl)urea] | < 5 | 25 to 100 |
| CN(C(=O)Nc1cncc(C(F)(F)F)c1)C1CC2(C1)CN(C(=O)c1cnn3ccn(C)c13)C2 [Example 169, 1-methyl-1-(2-(1-methyl-1H-imidazo[1,2-b]pyrazole-7-carbonyl)-2-azaspiro[3.3]heptan-6-yl)-3-(5-(trifluoromethyl)pyridin-3-yl)urea] | < 5 | 5 to 25 |
| Cn1cc(C(F)(F)F)cc(NC(=O)NC2CC3(C2)CN(C(=O)c2cnn4ccsc24)C3)c1=O [Example 58, 1-(1-methyl-2-oxo-5-(trifluoromethyl)-1,2-dihydropyridin-3-yl)-3-(2-(pyrazolo[5,1-b]thiazole-7-carbonyl)-2-azaspiro[3.3]heptan-6-yl)urea] | < 5 | 5 to 25 |
| CN(C(=O)Nc1cc(OC(F)(F)F)ccn1)C1CC2(C1)CN(C(=O)c1cnn3ccccc13)C2 [Example 239, 1-methyl-1-(2-(pyrazolo[1,5-a]pyridine-3-carbonyl)-2-azaspiro[3.3]heptan-6-yl)-3-(4-(trifluoromethoxy)pyridin-2-yl)urea] | < 5 | 5 to 25 |
| O=C(Nc1cncc(C(F)(F)F)c1)NC1CC2(C1)CN(C(=O)c1ccnc3[nH]ncc13)C2 [Example 159, 1-(2-(1H-pyrazolo[3,4-b]pyridine-4-carbonyl)-2-azaspiro[3.3]heptan-6-yl)-3-(5-(trifluoromethyl)pyridin-3-yl)urea] | < 5 | 5 to 25 |
| CN(C(=O)Nc1cc(C(F)(F)F)cc(Cl)n1)C1CC2(C1)CN(C(=O)c1cnn3ccn(C)c13)C2 [Example 267, 3-(6-chloro-4-(trifluoromethyl)pyridin-2-yl)-1-methyl-1-(2-(1-methyl-1H-imidazo[1,2-b]pyrazole-7-carbonyl)-2-azaspiro[3.3]heptan-6-yl)urea] | < 5 | < 5 |
| CN(C(=O)Nc1cc(C(F)(F)F)ncn1)C1CC2(C1)CN(C(=O)c1cnn3ccsc13)C2 [Example 178, 1-methyl-1-(2-(pyrazolo[5,1-b]thiazole-7-carbonyl)-2-azaspiro[3.3]heptan-6-yl)-3-(6-(trifluoromethyl)pyrimidin-4-yl)urea] | < 5 | 25 to 100 |
| CN(C(=O)Nc1cc(C(C)(C)C)no1)C1CC2(C1)CN(C(=O)c1cnn3ccn(C)c13)C2 [Example 215, 3-(3-(tert-butyl)isoxazol-5-yl)-1-methyl-1-(2-(1-methyl-1H-imidazo[1,2-b]pyrazole-7-carbonyl)-2-azaspiro[3.3]heptan-6-yl)urea] | 5 to 25 | 25 to 100 |
| CN(C(=O)Nc1cc(C(F)(F)F)cs1)C1CC2(C1)CN(C(=O)c1cnn3ccn(C)c13)C2 [Example 291, 1-methyl-1-(2-(1-methyl-1H-imidazo[1,2-b]pyrazole-7-carbonyl)-2-azaspiro[3.3]heptan-6-yl)-3-(4-(trifluoromethyl)thiophen-2-yl)urea] | < 5 | 5 to 25 |
| CN(C(=O)Nc1cncc(SC(F)(F)F)c1)C1CC2(C1)CN(C(=O)c1cnn3ccn(C)c13)C2 [Example 207, 1-methyl-1-(2-(1-methyl-1H-imidazo[1,2-b]pyrazole-7-carbonyl)-2-azaspiro[3.3]heptan-6-yl)-3-(5-((trifluoromethyl)thio)pyridin-3-yl)urea] | < 5 | 5 to 25 |
| Cn1ccn2ncc(C(=O)N3CC4(CC(OC(=O)Nc5cc(C(F)(F)F)cnn5)C4)C3)c12 [Example 311, 2-(1-methyl-1H-imidazo[1,2-b]pyrazole-7-carbonyl)-2-azaspiro[3.3]heptan-6-yl(5-(trifluoromethyl)pyridazin-3-yl)carbamate] | < 5 | 5 to 25 |
| CN(C(=O)Nc1cncc(Br)c1)C1CC2(C1)CN(C(=O)c1cnn3ccn(C)c13)C2 [Example 197, 3-(5-bromopyridin-3-yl)-1-methyl-1-(2-(1-methyl-1H-imidazo[1,2-b]pyrazole-7-carbonyl)-2-azaspiro[3.3]heptan-6-yl)urea] | < 5 | 5 to 25 |
